Experimental data published in ChEMBL document CHEMBL1130790, “Peptidyl human heart chymase inhibitors. 2. Discovery of highly selective difluoromethylene ketone derivatives with Glu at P3 site” (Bioorg Med Chem Lett, 1998).
Where a SMILES comes first, the peptide text is derived from it. The star is where a group is joined. Cbz = O=C(OCc1ccccc1)*

Biological target: T1, Chymase (Homo sapiens, UniProt P23946)
T1 sequence (P23946 whole entry): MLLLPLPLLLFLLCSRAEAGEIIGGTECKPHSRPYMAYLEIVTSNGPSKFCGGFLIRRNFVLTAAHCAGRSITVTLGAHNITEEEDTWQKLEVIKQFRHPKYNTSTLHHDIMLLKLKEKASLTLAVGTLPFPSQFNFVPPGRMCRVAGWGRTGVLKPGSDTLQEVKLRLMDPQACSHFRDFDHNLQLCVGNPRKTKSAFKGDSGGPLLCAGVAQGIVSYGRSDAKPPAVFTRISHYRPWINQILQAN
Assay: Compound was evaluated for inhibitory activity against human heart chymase (HHC)
For `CC(C)(C)OC(=O)NC(CCC(=O)O)C(=O)N1CCC[C@H]1C(=O)NC(Cc1ccccc1)C(=O)C(F)(F)C(=O)Nc1cccc(CC(=O)O)c1` (stereo partly specified), the Ki was 6.7 nM. With `CC[C@H](C)[C@H](NC(=O)OCc1ccccc1)C(=O)N[C@@H](CCC(=O)O)C(=O)N1CCC[C@H]1C(=O)N[C@@H](Cc1ccccc1)C(=O)OC` (Cbz-IEPF-OMe) the Ki was 3 nM. Compound `CC(C)(C)OC(=O)NC(CC(=O)O)C(=O)N1CCC[C@H]1C(=O)NC(Cc1ccccc1)C(=O)C(F)(F)C(=O)Nc1cccc(C(=O)O)c1` (stereo partly specified) has a Ki of 36.6 nM. For `CC(C)(C)OC(=O)NC(CCC(=O)O)C(=O)N1CCC[C@H]1C(=O)NC(Cc1ccccc1)C(=O)C(F)(F)C(=O)Nc1cc(C(=O)O)c2ccccc2c1` (stereo partly specified), the Ki was 14.2 nM. In the case of `CC(C)(C)OC(=O)NC(CCC(=O)O)C(=O)N1CCC[C@H]1C(=O)NC(Cc1ccccc1)C(=O)C(F)(F)C(=O)Nc1cccc(S(N)(=O)=O)c1` (stereo partly specified), the Ki is reported as 27.5 nM. Work on `CC(C)(C)OC(=O)NC(CCC(=O)O)C(=O)N1CCC[C@H]1C(=O)NC(Cc1ccccc1)C(=O)C(F)(F)C(=O)Nc1cccc(C(=O)O)c1` (stereo partly specified) yielded a Ki of 3.9 nM. Work on `CC(C)(C)OC(=O)NC(CCC(=O)O)C(=O)N1CCC[C@H]1C(=O)NC(Cc1ccccc1)C(=O)C(F)(F)C(=O)Nc1cc(C(=O)O)cs1` (stereo partly specified) yielded a Ki of 6 nM. For `CC(C)(C)OC(=O)NC(CCC(=O)O)C(=O)N1CCC[C@H]1C(=O)NC(Cc1ccccc1)C(=O)C(F)(F)C(=O)Nc1cccc(C(N)=O)c1` (stereo partly specified), the Ki was 21.1 nM. In the case of `CC(C)C(NC(=O)OC(C)(C)C)C(=O)N1CCC[C@H]1C(=O)NC(Cc1ccccc1)C(=O)C(F)(F)C(=O)Nc1cccc(C(=O)O)c1` (stereo partly specified), the Ki is reported as 5.6 nM. `CCCCNS(=O)(=O)c1cccc(NC(=O)C(F)(F)C(=O)C(Cc2ccccc2)NC(=O)[C@@H]2CCCN2C(=O)C(CCC(=O)O)NC(=O)OC(C)(C)C)c1` (stereo partly specified) showed a Ki of 22.8 nM.

Tested on: not listed separately
Assay: Selectivity ratio of Bovine chymotrypsin (BCT-Ki) to human heart chymase (HHC-Ki)
With `CC(C)(C)OC(=O)NC(CCC(=O)O)C(=O)N1CCC[C@H]1C(=O)NC(Cc1ccccc1)C(=O)C(F)(F)C(=O)Nc1cccc(CC(=O)O)c1` (stereo partly specified) the Ratio was 590. With `CC(C)(C)OC(=O)NC(CC(=O)O)C(=O)N1CCC[C@H]1C(=O)NC(Cc1ccccc1)C(=O)C(F)(F)C(=O)Nc1cccc(C(=O)O)c1` (stereo partly specified) the Ratio was 2730. `CC(C)(C)OC(=O)NC(CCC(=O)O)C(=O)N1CCC[C@H]1C(=O)NC(Cc1ccccc1)C(=O)C(F)(F)C(=O)Nc1cccc(S(N)(=O)=O)c1` (stereo partly specified) gave a Ratio of 38. Compound `CC(C)(C)OC(=O)NC(CCC(=O)O)C(=O)N1CCC[C@H]1C(=O)NC(Cc1ccccc1)C(=O)C(F)(F)C(=O)Nc1cccc(C(=O)O)c1` (stereo partly specified) has a Ratio of 332. Compound `CC(C)(C)OC(=O)NC(CCC(=O)O)C(=O)N1CCC[C@H]1C(=O)NC(Cc1ccccc1)C(=O)C(F)(F)C(=O)Nc1cc(C(=O)O)cs1` (stereo partly specified) has a Ratio greater than 16700. For `CC(C)(C)OC(=O)NC(CCC(=O)O)C(=O)N1CCC[C@H]1C(=O)NC(Cc1ccccc1)C(=O)C(F)(F)C(=O)Nc1cccc(C(N)=O)c1` (stereo partly specified), the Ratio was 58.
